Assay results published in patent US20240299383A1, “IMMUNOMODULATOR COMPOSITION COMPRISING AZVUDINE” (HENAN GENUINE BIOTECH CO., LTD., priority 2023, published 2024).

Experiments:
CT26 cells [1] = experiment: Anti-tumor effect of azvudine in CT-26 tumor-bearing mice with severe immunodeficiency; assay type: in vivo; conditions: mice with severe immunodeficiency (B-NDG), o.p., QD×2 W
B-cell lymphoma A20 = experiment: Azvudine in combination with PD-1 antibody in B-cell lymphoma A20 tumor-bearing mouse model; assay type: in vivo
Excerpt: The effect of azvudine in combination with PD-1 antibody on the B-cell lymphoma A20 tumor-bearing mouse model was further studied.

[2] = system: murine colorectal cancer CT-26 cell line; experiment: Azvudine in combination with PD-1 antibody in murine colorectal cancer CT-26 homograft tumor model; assay type: in vivo, BALB/c female mouse; conditions: for T/C (%) / TGI(%): tumor volume on the 17th day; for T/Cweight (%): 17th day
Excerpt: Further, the anti-tumor effect of azvudine in combination with PD-1 antibody on BALB/c female mouse subcutaneously xenografted with murine colorectal cancer CT-26 cell line animal model was studied.

[3] = system: cytokines (GM-CSF, MCP-1, IFNγ, IFNβ, TNFa, IL2, IL4, IL8, IL10); experiment: Release level of cytokines in serum and tumor tissue by MSD method, CT26 tumor model; assay type: in vivo, BALB/c mice; conditions: vs Vehicle
Procedure: CT26 cells were cultured in RPMI 1640 medium containing 10% fetal bovine serum at 37° C. in a 5% CO2 incubator. The cells were passaged routinely once a week. When the cell saturation reached 80%-90% and the cell number achieved the requirement, the cells were collected, counted and inoculated.
Animals were BALB/c female mice, 8 weeks old and weighing 18.5-22.9 g, which were provided by Shanghai Lingchang Biotechnology Co., Ltd.
0.1 mL (0.3×10^6) of CT26 cells were subcutaneously inoculated into each mouse. When the average tumor volume reached 101 mm^3, the mice were grouped and administered.
• 1) Quick-frozen tissue samples were taken out from the −80° C. refrigerator. • 2) On dry ice, part of the tumor tissue (about 50-100 mg) were cut out, and put into a 2 mL centrifuge tube with steel beads. Then the tube was added with 350 μL of cell lysis solution RIPA (in which 1% protease inhibitor and phosphatase inhibitor had been freshly added). • 3) The tissue was crushed with Tissue grinder at the highest frequency for 5 min. • 4) The tissue lysate was put on ice for 30 min. • 5) The tissue lysate was centrifuged at 12,000 rpm at 4° C. for 10 min. The supernatant was collected and put into a new 1.5 mL centrifuge tube.
• 1) The protein extract was diluted 50 times (2 μL of protein extract+98 μL of RIPA cell lysis buffer). • 2) Standard product and diluted samples were added at 10 μL/well in a 96-well transparent plate. • 3) Preparation of working solution: Reagent A and reagent B were mixed at a ratio of 50:1. 200 μL of the mixture was added to each well. • 4) The 96-well transparent plate was incubated at 37° C. for 30 min. • 5) The OD value at 562 nm was detected by a microplate reader, and then the tumor protein was quantified according to the OD result. • 6) The total protein concentration of the tumor samples was uniformly 2 mg/mL. • 7) The protein was quantified with BCA quantification kit. • 8) According to the quantitation results, the sample protein concentration was uniformly diluted to 2 μg/μL with RIPA lysis solution. • 9) MSD experiment was performed or the diluted samples were stored in a −80° C. refrigerator.
• 1) Preparation of standard product: 250 μL of Diluent 43 diluent was added to the standard product. The mixture was mixed well, and left to stand at room temperature for 15-30 min, and serially diluted by 4 times using Diluent 43 to obtain standard products Nos. 1-7. Diluent 43 was standard product No. 8. • 2) Sample dilution: The samples were diluted with Diluent 43. • 3) Antibody dilution: 100× antibody stock solution was diluted to 1×. • 4) Buffer preparation: 5× buffer was diluted to 1× with deionized water.
• 1) 200 μL of each biotin antibody was added to 300 μL of the designated linker. The resulting mixture was stirred by vortex and incubated at room temperature for 30 min. • 2) 200 μL of stop solution was added. The resulting mixture was stirred by vortex and incubated at room temperature for 30 min. • 3) 600 μL of each U-PLEX Linker-Coupled antibody solution (10×) was mixed into a tube and mixed by vortex. • 4) When the number of binding antibodies was less than 10, the solution was supplemented to 6 ml with stop solution. • 5) 50 μL of multiplex coating solution was added to each well. The plate was sealed with an adhesive board, and shaken at room temperature for 1 h. • 6) The wells were washed 3 times with 1× MSD wash Buffer at 150 μL/well. • 7) Standard product and detection antibody solutions were prepared. • 8) 25 μL of Diluent 43 was added to each well. • 9) 25 μL of prepared standard product, tissue sample or serum sample was added to each well. The plate was sealed with an adhesive board, and incubated at room temperature for 1 h. • 10) The wells were washed 3 times with 1× MSD wash Buffer at 150 μL/well. • 11) 50 μL of detection antibody solution was added to each well. […]

[4] = system: immune cells in CT26 tumor; experiment: Infiltration of immune cells in tumor by flow cytometry, CT26 tumor model; assay type: in vivo, BALB/c mice
Procedure: Tumor tissue was washed once with PBS, and removed of fat. The tumor tissue was quickly cut into small pieces. The chopped tumor tissue was transferred to a tube C containing 5 mL of digestive enzyme mixed solution. The tube C was put in a tissue processor, the tissue fragments were ensured to be submerged in the digestive enzyme, and the program m_imptumor_01_01 was performed. The sample was put in a water bath shaker at 37° C. for 30 min of digestion. After the digestion was completed, the program m_imptumor_01_01 was performed again, and then an appropriate amount of PBS containing 2% fetal bovine serum was added to terminate the digestion. The obtained mixture was filtered with a […] cell mesh to remove residual tissue, and washed with PBS. An appropriate volume of PBS was added according to the amount of cell precipitate to resuspend cells. Then the cells were gently blown evenly, and counted with a hemocytometer. An appropriate amount of cells were taken out and stained with antibodies.
The cells were resuspended with PBS to a concentration of 1×10^6 cells/100 μL. The cell suspension was added to a 96-well V-bottom plate at 100 μL per well. The plate was centrifuged at 450 g at 4° C. for 5 min, and the supernatant solution was discarded. The cells were resuspended with 100 μL of prepared Zombie NIR Live/Dead solution, then cultured at 4° C. in the dark for 30 min, and then washed twice with PBS. Then the cells in each well were resuspended with 50 μL of staining buffer containing Fc receptor inhibitor (1 μL of Fc receptor inhibitor+49 μL of staining buffer), and cultured at 4° C. in the dark for 5 min. Then the cells in each well were resuspended with 50 μL of Brilliant staining buffer containing Pacific Orange CD8, BV605 MHCII, BV650 CD25, BV750 CD45, BV785 Ly6C, AF488 CD11c, AF532 CD11b, PE-DZL594 CD49b, APC Ly6G, APC-Cy5.5 CD4, APC-Cy7 CD13, BV42 CD69 (or an isotype control antibody thereof), and cultured at 4° C. in the dark for 30 min. After staining was completed, the cells were washed twice with 200 μL of staining buffer.
The cells in each well were resuspended with 100 μL of Fixation/Permeabilization, and cultured at 4° C. in the dark for 30 min. After permeabilization was completed, the cells were washed twice with 200 μL of Permeabilization buffer. The cells were resuspended with 100 μL of Permeabilization buffer containing Fc receptor inhibitor, and cultured at 4° C. in the dark for 5 min. Then the cells were directly added with intracellular antibodies PE-Cy7 FoxP3 and PE Ki67 (or an isotype control antibody thereof), and cultured at 4° C. in the dark for 30 min. After staining was completed, the cells were washed twice with 200 μL of Permeabilization buffer, and resuspended with 200 μL of staining buffer. The flow cytometry detection was completed within 24 h.
The flow cytometry data was analyzed using FlowJo, SPSS and Graphpad Prism softwares, specifically including the following: • 1) The proportion of CD45+ cells in living cells of tumor tissue; • 2) The ratio of T, CD4+T, CD8+T, Treg, Myeloid, DC, NK, PMN-MDSC and M-MDSC in CD45+ cells; • 3) The ratio of CD8+T to Treg and the ratio of CD4+Teff to Treg; • 4) The CD69 positive rate and median fluorescence intensity (MFI) in T, CD4+T, and CD8+T cells; • 5) The Ki67 positive rate and median fluorescence intensity (MFI) in T, CD4+T, CD8+ and T cells; • 6) The number of T, CD4+T, CD8+T, Treg, Myeloid, DC, NK, PMN-MDSC, M-MDSC, and white blood cells per 100 mg of tumor tissue;
In this experiment, the CT26 tumor model was established on BALB/c mice, and the mice were treated with azvudine at different doses (0.25 mg/kg, 1 mg/kg). Tumor samples were collected. Then the proportion of each immune cell subset and the activation and proliferation of T, CD4+T and CD8+T were detected by flow cytometry.

CT26 cells [5] = experiment: Anti-tumor effect of azvudine in CT26 tumor-bearing mice with normal immune function; assay type: in vivo, BALB/c mouse; conditions: mice with normal immunity (BALB/c), o.p., QD×2 W
[6] = tumor tissue, 0.25 mg/kg and 1 mg/kg PO QD × 5D, certain dose-dependency
[7] = 0.25 mg/kg and 1 mg/kg PO QD × 5D, dose-dependent
[8] = after administration, 0.25 and 1 mg/kg, vs control group
[9] = high-dose group (1 mg/kg PO QD × 5D)

[N-]=[N+]=N[C@]1(CO)O[C@@H](n2ccc(N)nc2=O)[C@@H](F)[C@@H]1O [Azvudine]
IR(%) (CT26 cells [1]; 0.25 mpk): 9.4%
TGI(%) (CT26 cells [1]; 0.25 mpk): 13%
IR(%) (CT26 cells [1]; 1 mpk): 49.2%
TGI(%) (CT26 cells [1]; 1 mpk): 53%
IR(%) (B-cell lymphoma A20; Azvudine single drug, 1 mpk): 70.8%
TGI(%) (B-cell lymphoma A20; Azvudine single drug, 1 mpk): 70%
inhibitory activity on the B-cell lymphoma A20 tumor-bearing mice (B-cell lymphoma A20; administered alone): certain inhibitory activity
TGI (B-cell lymphoma A20; azvudine 2 mg/kg): 88%
Tumor weight (mg) (On the 17th day) ([2]; Azvudine 0.25 mg/kg): 848 ± 210 mg
Tumor volume (mm^3) on the 17th day ([2]; Azvudine 0.25 mg/kg p.o. QD × 18 days): 768 ± 74 mm^3
Tumor volume (mm^3) on the 17th day ([2]; Azvudine 0.25 mg/kg p.o. QD × 18 days, listed as azvudine): 768 mm^3
T/C (%) ([2]; Azvudine 0.25 mg/kg p.o.): 39.18%
TGI(%) ([2]; Azvudine 0.25 mg/kg p.o.): 63.26%
T/Cweight (%) ([2]; Azvudine 0.25 mg/kg): 42.52%
Tumor weight (mg) (On the 17th day) ([2]; Azvudine 0.5 mg/kg): 386 ± 256 mg
Tumor volume (mm^3) on the 17th day ([2]; Azvudine 0.5 mg/kg p.o. QD × 18 days): 347 ± 77 mm^3
Tumor volume (mm^3) on the 17th day ([2]; Azvudine 0.5 mg/kg p.o. QD × 18 days, listed as azvudine): 347 mm^3
T/C (%) ([2]; Azvudine 0.5 mg/kg p.o.): 17.63%
TGI(%) ([2]; Azvudine 0.5 mg/kg p.o.): 84.85%
T/Cweight (%) ([2]; Azvudine 0.5 mg/kg): 19.37%
release of MCP-1 ([3]; serum samples, 0.25 mg/kg PO QD × 5D, 2 h after last administration): significantly reduced
release of IL8 ([3]; serum samples, 0.25 mg/kg and 1 mg/kg PO QD × 5D): significantly reduced
other cytokines ([3]; serum samples, 0.25 mg/kg and 1 mg/kg): no significant change
release of IFN-β [3, 6]: decreased
release of IFNγ [3, 6]: increased
release of TNFα [3, 6]: increased
infiltration of immune cells in the tumor ([4]; 0.25 mg/kg and 1 mg/kg PO QD × 5D, vs control group): increased
infiltration of CD8+T cells in the tumor [4, 7]: increase
infiltration of NK cells in the tumor [4, 7]: increase
other cell subsets after administration ([4]; 0.25 and 1 mg/kg, compared with the control group): no significant change
expression level of CD69 in T, CD4+ T, and CD8+ T cells [4, 8]: no significant difference
expression level of Ki67 in T, CD4+ T, and CD8+ T cells [4, 8]: no significant difference
proportion of M-MDSC cells [4, 9]: significant reduction
proportion of PMN-MDSC cells [4, 9]: significant reduction
proportion of myeloid cells [4, 9]: significantly reduced
ratio of CD4Teff/Treg [4, 9]: significantly increased
ratio of CD8T/Treg [4, 9]: significantly increased
CD8T/Treg and CD4Teff/Treg ratios and proportion of myeloid, M-MDSC, PMN-MDSC cells ([4]; low-dose group (0.25 mg/kg PO QD × 5D), compared with high-dose group): same trend
IR(%) (CT26 cells [5]; 0.25 mpk): 57.5%
TGI(%) (CT26 cells [5]; 0.25 mpk): 63%
IR(%) (CT26 cells [5]; 1 mpk): 84.5%
TGI(%) (CT26 cells [5]; 1 mpk): 94%
